# Source: publication PMC10009755, “Discovery and Characterization of BAY-805, a Potent and Selective Inhibitor of Ubiquitin-Specific Protease USP21” (Journal of Medicinal Chemistry, 2023)
# Where two headings read alike, the source gives them in different places.
# Legend:
# [1] = system: NF-κB activation; experiment: NF-κB reporter assay; type: cell-based; conditions: HEK293T cells, up to 10 μM
# Description: Yang and colleagues reported that USP21 inhibition induces NF-κB activation by preventing deubiquitination of RIP1.[15] K63 ubiquitinated RIP1 is required for NF-κB activation, and thus USP21-mediated deubiquitination of RIP1 shuts down the NF-κB pathway.
# Four hours after replating, cells were treated with compounds or DMSO (note: DMSO concentrations were kept consistent across all cells). Promega Dual-Luciferase Reporter Assay kit was then used to prepare samples for Firefly and Renilla signal measurement on a CLARIOstar microplate reader (BMG) 20 h after compound treatment. Relative luciferase units were calculated by normalizing the Firefly signal to the background Renilla signal, followed by normalization to DMSO controls of wild-type USP21.
# [2] = in vitro; type: in vitro ADME; conditions: human, Caco-2, pH 7.2
# Description: Caco-2 cells [purchased from the German Collection of Microorganisms and Cell Cultures (DSMZ)] were seeded at a density of 4.5 × 10^4 cells/well on 24-well insert plates [0.4 μm pore size, 0.3 cm^2 (Costar)] and grown for 13–15 days in DMEM medium supplemented with 10% fetal calf serum (FCS), 1% GlutaMAX (100×, Gibco), 100 U/mL penicillin, 100 μg/mL streptomycin (Gibco), and 1% nonessential amino acids (100×, Thermo Fischer Scientific). […] The medium was changed every 2–3 days.
# The bidirectional transport assay for the evaluation of Caco-2 permeability was undertaken in 24-well insert plates using a robotic system (Tecan). Before the assay was run, the culture medium was replaced by a transport medium (FCS-free HEPES carbonate transport buffer pH 7.2). For the assessment of monolayer integrity, the transepithelial electrical resistance (TEER) was measured. Only monolayers with a TEER of at least 400 Ω·cm^2 were used. Test compounds were pre-dissolved in DMSO and added either to the apical or basolateral compartment at a final concentration of 2 μM. The evaluation was performed in triplicate. […] The efflux ratio (ER) basolateral (B) to apical (A) was calculated by dividing Papp B–A by Papp A–B.
# [3] = target: T1, USP21 (Homo sapiens, UniProt Q9UK80); experiment: SPR binding; conditions: single-cycle kinetics, 15 °C
# T1 construct: made in house; host or cells: E. coli BL21(DE3)
# Description: For binding analysis, a multi-cycle protocol was chosen with a contact time of 60 s, a flow rate of 30 μL/min, and a dissociation time of 200 s. Binding constants were calculated from the steady state using Biacore Insight Evaluation Software, assuming a 1:1 binding model as an average of four titrations. […] Immobilization levels were kept similar to the above. […] The running buffer of the duplicate measurements is 10 mM HEPES, pH 7.4, 150 mM NaCl, 0,005% surfactant P20 further supplemented with 2 mg/mL BSA and 1% DMSO. Affinity and kinetic analysis were performed using Biacore Insight Evaluation Software on double reference subtracted sensorgrams.
# [4] = Aqueous solubility; type: physicochemical; conditions: PBS pH 6.5, pH 6.5, PBS pH 6.5
# Description: Test compounds were applied as DMSO solutions or directly from powder. After the addition of the buffer, solutions were shaken at rt for 24 h. The undissolved material was removed by filtration or centrifugation. The compound dissolved in the supernatant was quantified by HPLC-UV or HPLC-MS/MS.
# [5] = log D measurement (HPLC); type: physicochemical; conditions: reverse-phase HPLC, pH 7.5, pH 7.5, HPLC method; read-out: logD7.5
# Description: log D values at pH 7.5 were recorded using an indirect method for determining hydrophobicity constants by reverse-phase HPLC. A series of compounds with well-known log D values were used for calibration. Test compounds were injected into the same HPLC system. The lipophilicity of compounds was then assessed by comparison to the calibration curve.
# [6] = target: T2, C-terminal HiBiT-tagged USP21 (Homo sapiens, UniProt Q9UK80); experiment: USP21 HiBiT CETSA; type: cell-based; conditions: 49 °C, HEK293T cells
# T2 construct: expressed in transfected cells; host or cells: HEK293T
# T2 sequence (Q9UK80 1-565): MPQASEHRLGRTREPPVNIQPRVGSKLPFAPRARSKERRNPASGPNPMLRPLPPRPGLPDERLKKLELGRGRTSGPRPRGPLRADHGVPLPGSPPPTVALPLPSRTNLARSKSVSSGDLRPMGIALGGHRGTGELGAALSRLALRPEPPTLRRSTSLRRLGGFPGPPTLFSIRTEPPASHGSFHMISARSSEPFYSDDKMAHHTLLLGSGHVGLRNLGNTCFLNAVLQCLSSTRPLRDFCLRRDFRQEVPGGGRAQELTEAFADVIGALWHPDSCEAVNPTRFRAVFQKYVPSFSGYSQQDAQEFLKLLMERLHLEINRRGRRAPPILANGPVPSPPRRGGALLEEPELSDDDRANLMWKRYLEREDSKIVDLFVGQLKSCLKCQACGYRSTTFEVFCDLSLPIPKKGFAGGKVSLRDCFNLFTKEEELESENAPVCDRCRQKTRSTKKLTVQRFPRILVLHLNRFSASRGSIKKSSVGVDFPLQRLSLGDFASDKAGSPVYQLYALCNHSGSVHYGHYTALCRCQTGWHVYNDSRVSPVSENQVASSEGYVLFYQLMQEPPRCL
# Description: In particular, we utilized a HiBiT CETSA assay format[42],[43] conducted in intact HEK293T cells. Cells were transfected with USP21 fused to a small proluminescent NanoLuc HiBiT tag, which, when complemented with the Large BiT NanoLuc fragment, produces a quantifiable luminescence signal.
# HEK293T cells were seeded in a six-well plate at 8 × 10^5 cells/well in 2 mL of DMEM supplemented with 10% FBS, penicillin (100 U/mL), and streptomycin (100 μg/mL) and transfected 4 h after seeding using an X-tremeGENE HP transfection reagent, following the manufacturer’s instructions with a total of 2 μg of plasmid constructs (C-terminally tagged USP21 HiBiT and empty pCDNA3.1 vector). […] The breathable paper adhesive film was then replaced with a PCR adhesive film, and cells were heated at indicated temperatures in an Applied Biosystems VeritiPro thermal cycler for 3 min, followed by 3 min incubation at rt before the addition of LgBiT solution (200 nM LgBiT, 2% NP-40, protease inhibitors (Roche cOmplete, ethylenediaminetetraacetic acid (EDTA)-free Protease Inhibitor) in OptiMEM no phenol red (Gibco)) to lyse cells.
# [7] = target: T3, Serotonin (5-Hydroxytryptamine) 5-HT1A (Homo sapiens, UniProt P08908); experiment: Eurofins Panlabs safety screen; type: binding
# T3 construct: Eurofins Panlabs
# [8] = target: T4, Cholinesterase, Acetyl, ACES (Homo sapiens, UniProt P22303); experiment: Eurofins Panlabs safety screen; type: biochemical
# T4 construct: Eurofins Panlabs
# T4 sequence (P22303 32-614): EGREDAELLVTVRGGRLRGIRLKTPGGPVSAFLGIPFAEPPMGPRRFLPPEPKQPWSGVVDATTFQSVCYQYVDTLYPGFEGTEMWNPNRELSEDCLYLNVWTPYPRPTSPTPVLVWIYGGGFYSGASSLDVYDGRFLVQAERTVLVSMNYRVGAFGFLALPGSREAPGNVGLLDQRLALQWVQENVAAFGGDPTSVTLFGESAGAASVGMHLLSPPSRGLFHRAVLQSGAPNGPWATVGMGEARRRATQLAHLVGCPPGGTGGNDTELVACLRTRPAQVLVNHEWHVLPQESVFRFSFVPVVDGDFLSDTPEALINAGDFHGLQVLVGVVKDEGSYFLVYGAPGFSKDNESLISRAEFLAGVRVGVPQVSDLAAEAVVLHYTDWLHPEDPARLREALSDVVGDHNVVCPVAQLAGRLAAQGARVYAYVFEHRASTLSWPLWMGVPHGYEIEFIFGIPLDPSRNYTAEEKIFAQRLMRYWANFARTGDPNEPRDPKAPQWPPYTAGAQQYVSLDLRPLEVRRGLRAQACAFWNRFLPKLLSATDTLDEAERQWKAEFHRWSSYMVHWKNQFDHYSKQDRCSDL
# [9] = target: Dopamine D2S (Homo sapiens, UniProt P14416); experiment: Eurofins Panlabs safety screen; type: binding
# [10] = target: T5, Fms(h) (Homo sapiens, UniProt P07333); experiment: Eurofins kinase panel; type: biochemical
# T5 construct: purchased Eurofins (formerly Millipore/Upstate) KinaseProfiler
# T5 sequence (P07333 20-972): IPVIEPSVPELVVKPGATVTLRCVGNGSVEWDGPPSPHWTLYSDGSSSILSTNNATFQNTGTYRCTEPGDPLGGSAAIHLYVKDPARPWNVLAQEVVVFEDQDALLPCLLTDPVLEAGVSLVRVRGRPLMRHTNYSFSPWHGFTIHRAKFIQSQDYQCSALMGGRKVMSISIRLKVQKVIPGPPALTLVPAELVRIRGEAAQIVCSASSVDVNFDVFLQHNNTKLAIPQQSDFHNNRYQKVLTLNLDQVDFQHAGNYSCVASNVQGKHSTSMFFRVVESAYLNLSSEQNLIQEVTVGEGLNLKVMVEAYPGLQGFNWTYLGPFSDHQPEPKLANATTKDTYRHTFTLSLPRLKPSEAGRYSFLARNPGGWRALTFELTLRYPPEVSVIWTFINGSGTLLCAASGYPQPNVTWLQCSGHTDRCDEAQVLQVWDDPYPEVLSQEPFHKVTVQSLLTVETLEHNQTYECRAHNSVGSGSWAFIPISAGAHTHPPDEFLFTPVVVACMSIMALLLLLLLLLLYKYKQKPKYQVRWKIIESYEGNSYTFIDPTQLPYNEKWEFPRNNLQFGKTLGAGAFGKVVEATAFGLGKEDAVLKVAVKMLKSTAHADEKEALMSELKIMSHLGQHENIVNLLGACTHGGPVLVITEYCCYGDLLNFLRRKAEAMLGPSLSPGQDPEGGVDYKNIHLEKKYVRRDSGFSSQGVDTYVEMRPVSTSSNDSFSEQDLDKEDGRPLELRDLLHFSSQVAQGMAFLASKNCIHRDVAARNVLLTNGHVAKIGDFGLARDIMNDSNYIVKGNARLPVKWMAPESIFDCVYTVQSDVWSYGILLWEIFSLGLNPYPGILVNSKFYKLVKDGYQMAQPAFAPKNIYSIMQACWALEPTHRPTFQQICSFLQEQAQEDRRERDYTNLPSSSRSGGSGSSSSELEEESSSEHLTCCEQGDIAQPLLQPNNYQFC
# [11] = target: T6, Opiate μ (OP3, MOP) (Homo sapiens, UniProt P35372); experiment: Eurofins Panlabs safety screen; type: binding
# T6 construct: Eurofins Panlabs
# [12] = target: T7, Muscarinic M2 (Homo sapiens, UniProt P08172); experiment: Eurofins Panlabs safety screen; type: binding
# T7 construct: Eurofins Panlabs
# T7 sequence (P08172 whole entry): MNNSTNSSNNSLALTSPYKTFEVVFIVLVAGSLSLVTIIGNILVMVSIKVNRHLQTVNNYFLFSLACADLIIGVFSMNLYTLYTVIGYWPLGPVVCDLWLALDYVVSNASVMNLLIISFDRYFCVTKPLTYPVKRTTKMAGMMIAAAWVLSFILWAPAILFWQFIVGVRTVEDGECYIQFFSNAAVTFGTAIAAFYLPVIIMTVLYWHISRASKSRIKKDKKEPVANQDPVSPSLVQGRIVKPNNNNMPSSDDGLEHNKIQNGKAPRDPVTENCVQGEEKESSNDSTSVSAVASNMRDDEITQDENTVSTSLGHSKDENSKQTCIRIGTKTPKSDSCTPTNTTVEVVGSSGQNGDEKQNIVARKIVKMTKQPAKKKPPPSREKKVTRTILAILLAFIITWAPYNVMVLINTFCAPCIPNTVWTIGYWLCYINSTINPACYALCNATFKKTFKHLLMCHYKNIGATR
# [13] = target: Cannabinoid CB1 (Homo sapiens, UniProt P21554); experiment: Eurofins Panlabs safety screen; type: binding
# [14] = target: T8, Serotonin (5-Hydroxytryptamine) 5-HT2C (Homo sapiens, UniProt P28335); experiment: Eurofins Panlabs safety screen; type: binding
# T8 construct: Eurofins Panlabs
# [15] = target: T9, Serotonin (5-Hydroxytryptamine) 5-HT2B (Homo sapiens, UniProt P41595); experiment: Eurofins Panlabs safety screen; type: binding
# T9 construct: Eurofins Panlabs
# [16] = target: Dopamine D3 (Homo sapiens, UniProt P35462); experiment: Eurofins Panlabs safety screen; type: binding
# Dopamine D3, sequence (P35462 whole entry): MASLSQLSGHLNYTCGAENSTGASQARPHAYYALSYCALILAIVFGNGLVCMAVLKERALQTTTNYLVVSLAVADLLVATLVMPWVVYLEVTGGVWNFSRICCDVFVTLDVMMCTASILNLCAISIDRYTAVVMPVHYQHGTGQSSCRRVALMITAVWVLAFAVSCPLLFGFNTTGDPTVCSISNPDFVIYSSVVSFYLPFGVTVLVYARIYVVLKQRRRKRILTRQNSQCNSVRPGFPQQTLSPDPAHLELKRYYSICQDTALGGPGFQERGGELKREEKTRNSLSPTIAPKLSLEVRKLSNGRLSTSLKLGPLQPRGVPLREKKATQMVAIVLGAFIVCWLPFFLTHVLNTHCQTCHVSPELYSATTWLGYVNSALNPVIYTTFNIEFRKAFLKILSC
# [17] = target: T10, Opiate δ1 (OP1, DOP) (Homo sapiens, UniProt P41143); experiment: Eurofins Panlabs safety screen; type: binding
# T10 construct: Eurofins Panlabs
# T10 sequence (P41143 whole entry): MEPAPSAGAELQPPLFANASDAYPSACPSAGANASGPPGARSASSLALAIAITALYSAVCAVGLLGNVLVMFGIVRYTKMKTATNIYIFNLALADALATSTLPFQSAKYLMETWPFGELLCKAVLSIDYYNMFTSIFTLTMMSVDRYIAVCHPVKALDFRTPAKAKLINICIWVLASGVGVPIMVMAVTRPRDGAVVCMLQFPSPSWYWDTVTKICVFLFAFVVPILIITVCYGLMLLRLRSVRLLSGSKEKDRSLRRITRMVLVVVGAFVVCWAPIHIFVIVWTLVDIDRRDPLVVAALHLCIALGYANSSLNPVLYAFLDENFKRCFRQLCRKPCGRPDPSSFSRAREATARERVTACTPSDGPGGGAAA
# [18] = target: T11, Nicotinic Acetylcholine α3β4 (Homo sapiens, UniProt P30926+P32297); experiment: Eurofins Panlabs safety screen; type: binding
# T11 construct: Eurofins Panlabs
# T11 sequence (P32297 32-505): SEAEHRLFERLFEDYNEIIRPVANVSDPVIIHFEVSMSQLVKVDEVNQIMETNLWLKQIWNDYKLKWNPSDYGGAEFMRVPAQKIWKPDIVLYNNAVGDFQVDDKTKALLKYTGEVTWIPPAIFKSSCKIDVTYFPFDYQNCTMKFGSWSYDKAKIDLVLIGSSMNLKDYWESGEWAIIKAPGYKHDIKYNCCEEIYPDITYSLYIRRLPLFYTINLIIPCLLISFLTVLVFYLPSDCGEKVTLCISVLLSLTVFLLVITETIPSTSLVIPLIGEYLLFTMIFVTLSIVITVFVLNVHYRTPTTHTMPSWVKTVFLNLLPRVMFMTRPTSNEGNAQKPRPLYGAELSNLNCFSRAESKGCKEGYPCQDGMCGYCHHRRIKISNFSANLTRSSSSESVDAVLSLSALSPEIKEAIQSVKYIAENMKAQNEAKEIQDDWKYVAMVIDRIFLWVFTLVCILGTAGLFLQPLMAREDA
# T11 sequence (P30926 22-498): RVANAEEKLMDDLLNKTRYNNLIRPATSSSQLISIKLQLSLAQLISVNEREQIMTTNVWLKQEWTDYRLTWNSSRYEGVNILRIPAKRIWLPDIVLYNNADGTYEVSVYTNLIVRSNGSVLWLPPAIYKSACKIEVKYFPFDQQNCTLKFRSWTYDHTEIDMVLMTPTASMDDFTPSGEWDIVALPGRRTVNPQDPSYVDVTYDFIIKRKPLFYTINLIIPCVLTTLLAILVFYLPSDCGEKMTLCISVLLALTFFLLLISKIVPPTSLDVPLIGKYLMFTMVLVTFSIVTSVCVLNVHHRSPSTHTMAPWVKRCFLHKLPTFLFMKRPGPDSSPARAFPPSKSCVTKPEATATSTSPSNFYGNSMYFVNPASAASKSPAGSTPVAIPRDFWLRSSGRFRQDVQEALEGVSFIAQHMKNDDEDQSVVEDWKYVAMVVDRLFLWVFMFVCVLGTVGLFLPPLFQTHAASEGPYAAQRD
# [19] = target: Dopamine D2L (Homo sapiens, UniProt P14416); experiment: Eurofins Panlabs safety screen; type: binding
# [20] = target: T12, PRP4(h) (Homo sapiens, UniProt Q13523); experiment: Eurofins kinase panel; type: biochemical
# T12 construct: purchased Eurofins (formerly Millipore/Upstate) KinaseProfiler
# [21] = target: T13, Adrenergic α2A (Homo sapiens, UniProt P08913); experiment: Eurofins Panlabs safety screen; type: binding
# T13 construct: Eurofins Panlabs
# [22] = target: T14, Adrenergic α2B (Homo sapiens, UniProt P18089); experiment: Eurofins Panlabs safety screen; type: binding
# T14 construct: Eurofins Panlabs
# [23] = target: T15, Muscarinic M1 (Homo sapiens, UniProt P11229); experiment: Eurofins Panlabs safety screen; type: binding
# T15 construct: Eurofins Panlabs
# [24] = target: Dopamine D1 (Homo sapiens, UniProt P21728); experiment: Eurofins Panlabs safety screen; type: binding
# [25] = target: T16, Adrenergic α1A (Homo sapiens, UniProt P35348); experiment: Eurofins Panlabs safety screen; type: binding
# T16 construct: Eurofins Panlabs
# [26] = target: T17, Muscarinic M4 (Homo sapiens, UniProt P08173); experiment: Eurofins Panlabs safety screen; type: binding
# T17 construct: Eurofins Panlabs
# [27] = target: T18, Muscarinic M3 (Homo sapiens, UniProt P20309); experiment: Eurofins Panlabs safety screen; type: binding
# T18 construct: Eurofins Panlabs
# [28] = target: Androgen (Testosterone) (Homo sapiens, UniProt P10275); experiment: Eurofins Panlabs safety screen; type: binding
# Androgen (Testosterone), sequence (P10275 whole entry): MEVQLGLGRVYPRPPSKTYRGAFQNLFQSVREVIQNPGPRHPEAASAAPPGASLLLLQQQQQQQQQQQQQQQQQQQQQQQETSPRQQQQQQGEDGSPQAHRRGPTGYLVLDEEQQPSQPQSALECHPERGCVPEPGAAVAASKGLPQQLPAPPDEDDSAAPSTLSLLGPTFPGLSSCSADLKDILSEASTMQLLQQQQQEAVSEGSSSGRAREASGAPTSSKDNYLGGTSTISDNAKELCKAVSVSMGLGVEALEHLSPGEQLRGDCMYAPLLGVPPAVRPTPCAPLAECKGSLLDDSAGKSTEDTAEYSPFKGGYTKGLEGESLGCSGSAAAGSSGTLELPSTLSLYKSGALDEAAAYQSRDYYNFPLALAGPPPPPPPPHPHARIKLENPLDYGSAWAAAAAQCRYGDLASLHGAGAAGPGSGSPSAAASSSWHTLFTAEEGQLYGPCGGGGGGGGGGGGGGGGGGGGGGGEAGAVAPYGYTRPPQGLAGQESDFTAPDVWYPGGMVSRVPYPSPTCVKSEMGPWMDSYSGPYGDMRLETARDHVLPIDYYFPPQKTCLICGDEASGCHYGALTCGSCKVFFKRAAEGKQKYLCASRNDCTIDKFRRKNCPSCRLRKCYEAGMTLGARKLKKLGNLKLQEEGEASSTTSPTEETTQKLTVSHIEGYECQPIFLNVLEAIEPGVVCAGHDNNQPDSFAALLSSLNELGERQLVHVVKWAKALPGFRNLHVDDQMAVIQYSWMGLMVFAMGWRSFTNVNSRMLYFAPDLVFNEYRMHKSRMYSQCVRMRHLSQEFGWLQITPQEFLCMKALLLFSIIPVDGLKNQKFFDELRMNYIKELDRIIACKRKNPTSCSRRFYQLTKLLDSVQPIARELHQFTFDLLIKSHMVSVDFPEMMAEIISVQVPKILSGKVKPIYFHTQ
# [29] = target: T19, Adrenergic α2C (Homo sapiens, UniProt P18825); experiment: Eurofins Panlabs safety screen; type: binding
# T19 construct: Eurofins Panlabs
# [30] = target: Cannabinoid CB2 (Homo sapiens, UniProt P34972); experiment: Eurofins Panlabs safety screen; type: binding
# Cannabinoid CB2, sequence (P34972 whole entry): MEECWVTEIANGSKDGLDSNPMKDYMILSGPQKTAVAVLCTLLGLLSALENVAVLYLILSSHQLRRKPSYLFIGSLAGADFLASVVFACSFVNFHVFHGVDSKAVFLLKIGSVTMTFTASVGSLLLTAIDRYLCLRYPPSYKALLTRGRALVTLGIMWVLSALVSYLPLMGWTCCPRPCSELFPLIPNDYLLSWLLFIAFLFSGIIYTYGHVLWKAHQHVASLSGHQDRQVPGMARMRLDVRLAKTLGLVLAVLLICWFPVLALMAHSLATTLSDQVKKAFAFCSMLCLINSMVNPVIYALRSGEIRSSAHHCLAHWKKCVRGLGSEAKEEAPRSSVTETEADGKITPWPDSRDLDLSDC
# [31] = target: T20, Serotonin (5-Hydroxytryptamine) 5-HT2A (Homo sapiens, UniProt P28223); experiment: Eurofins Panlabs safety screen; type: binding
# T20 construct: Eurofins Panlabs
# [32] = target: T21, USP21 (Homo sapiens, UniProt Q9UK80)
# T21 sequence (Q9UK80 1-565): T2 sequence (Q9UK80 1-565)
# Description: To this end, we developed a USP21 activity assay that is based on the deubiquitination of a STING-derived peptide (a USP21-specific substrate[17],[18]) by purified recombinant human full-length USP21 using time-resolved fluorescence resonance energy transfer (TR-FRET) technology (referred to as a homogeneous time-resolved fluorescence (HTRF)-assay, for details see the Supporting Information).[39]
# All substrate and enzyme solutions were diluted in an assay buffer. […] Incubation time was 15–20 min at room temperature. […] The stop solution (DUB inhibitor PR619, Abcam) was prepared in 25 mM HEPES, pH 7.5 (Alfa Aesar) containing 0.01% BSA and then left for 10 min at room temperature before filtering with a 0.2 μM PES Membrane (Thermo Fisher). The reaction was stopped with the addition of 2 μL of 200 μM PR619. […] The plates were measured on the ViewLux in screening or PHERAstar FSX in compound profiling. […] The number of flashes per well was set to 3. All of the experimental data were plotted using Genedata analysis. The Z′-factor and S/B of the assay were >0.7 and ∼2, respectively.
# [33] = target: T22, USP2 (Homo sapiens, UniProt O75604); experiment: hUSP2 Ub-rhodamine 110 assay; type: biochemical; conditions: arithmetic means of multiple measurements; read-out: IC50 hUSP2 Ub-Rhod
# T22 construct: His tag
# T22 sequence (O75604 259-605): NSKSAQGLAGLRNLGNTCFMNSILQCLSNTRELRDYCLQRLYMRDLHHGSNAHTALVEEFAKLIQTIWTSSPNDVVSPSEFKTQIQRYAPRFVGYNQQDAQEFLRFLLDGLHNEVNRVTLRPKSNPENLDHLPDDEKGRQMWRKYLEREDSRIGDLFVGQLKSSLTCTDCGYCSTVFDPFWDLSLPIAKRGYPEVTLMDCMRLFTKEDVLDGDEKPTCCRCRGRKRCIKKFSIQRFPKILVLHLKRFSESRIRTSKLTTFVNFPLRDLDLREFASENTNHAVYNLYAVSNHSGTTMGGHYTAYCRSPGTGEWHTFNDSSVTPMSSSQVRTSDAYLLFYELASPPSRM
# Description: The final assay volume was 6 μL.
# [34] = target: T21, USP21; remark: listed apart in the source
# Description: The final assay volume was 6 μL. […] First, 2 μL of 1 nM USP21 (or selectivity enzyme) solution was added to the compound plate and preincubated for 15–20 min at room temperature. […] The reaction was stopped by 50 mM citric acid in 25 mM HEPES, pH 7.5, containing 0.01% BSA. […] The USP21 and USP22 were measured with five flashes and USP2 and USP7 in fly mode.
# [35] = target: T21, USP21; experiment: Thermal shift assay (TSA); type: binding; parameters: purchased Ubiquigent (DUBprofiler service); conditions: 100 μM compound
# Description: Experiments were carried out with the QuantStudio7 Flex Real-Time PCR system (Thermo Fisher Scientific) in a 384-well plate format with 5 μL of reaction volume. Melting curves were obtained at an USP21 protein concentration of 3.8 μM and 5xSYPRO Orange (Invitrogen) using a buffer containing 20 mM Tris, pH 7.5; 150 mM NaCl; 10% glycerol; and 1.0 mM TCEP. […] For binding experiments, compounds were added from 10 mM stock solution to a final concentration of 100 μM. As a control, 1% DMSO was used. Scans were measured from 25 to 95 °C at a scanning rate of 4 °C/min. All TSA data were analyzed using a Genedata Assay Analyzer.
smiles,measurement,setting,value
"N#Cc1ccc(Cc2nnc(NC(=O)[C@@H](CO)NC(=O)C3(C(F)(F)F)CCCCC3)s2)cc1 [Compound 18, OC[C@@H](NC(=O)C1(CCCCC1)C(F)(F)F)C(=O)Nc2nnc(Cc3ccc(cc3)C#N)s2]",NF-κB activation (in words),[1],cellular activity was not observed
same,"Papp A→B at 2 h, 2 µM","[2]; 2 μM, 2 h",1.4 ×10⁻⁶ cm/s
same,"efflux ratio at 2 h, 2 µM","[2]; Papp B–A / Papp A–B, read-out: Caco-2 efflux ratio (ER)",14
same,Kd,[3],0.0058 µM
same,solubility at 24 h,[4],91.2 µM
same,chromatographic logD,[5],2.5
same,cellular thermal stabilization of USP21 (in words),[6],strong cellular target engagement
"CC(C)C[C@@H](NC(=O)C1(C(F)(F)F)CCCCC1)C(=O)Nc1nnc(Cc2ccc(C#N)cc2)s1 [Compound 21, N-[(1R)-1-[[5-[(4-Cyanophenyl)methyl]-1,3,4-thiadiazol-2-yl]carbamoyl]-3-methyl-butyl]-1-(trifluoromethyl)cyclohexanecarboxamide]",inhibition at 10 µM,[7],2%
same,IC50,[8],7.61 µM
same,inhibition at 10 µM,[8],72%
same,inhibition at 0.1 µM,"[8]; IC50 determination, 0.1 µM",15%
same,inhibition at 0.3 µM,"[8]; IC50 determination, 0.3 µM",16%
same,inhibition at 1 µM,"[8]; IC50 determination, 1 µM",11%
same,inhibition at 3 µM,"[8]; IC50 determination, 3 µM",4%
same,inhibition at 10 µM,[8]; IC50 determination,74%
same,inhibition at 30 µM,"[8]; IC50 determination, 30 µM",74%
same,inhibition at 10 µM,[9],24%
same,inhibition at 10 µM,[10],3.41%
same,inhibition at 10 µM,[11],-1%
same,inhibition at 10 µM,[12],2%
same,inhibition at 10 µM,[13],8%
same,inhibition at 10 µM,[14],-5%
same,inhibition at 10 µM,[15],3%
same,inhibition at 10 µM,[16],9%
same,inhibition at 10 µM,[17],-5%
same,inhibition at 10 µM,[18],-3%
same,inhibition at 10 µM,[19],8%
same,inhibition at 10 µM,[20],8.18%
same,inhibition at 10 µM,[21],14%
same,inhibition at 10 µM,[22],4%
same,inhibition at 10 µM,[23],18%
same,inhibition at 10 µM,[24],-3%
same,inhibition at 10 µM,[25],1%
same,inhibition at 10 µM,[26],-4%
same,inhibition at 10 µM,[27],7%
same,inhibition at 10 µM,[28],4%
same,inhibition at 10 µM,[29],6%
same,inhibition at 10 µM,[30],1%
same,inhibition at 10 µM,[31],4%
"O=C(CNC(=O)C1CCCC1)Nc1nnc(Cc2ccc([N+](=O)[O-])cc2)s1 [Compound 2, [O-][N+](=O)c1ccc(Cc2nnc(NC(=O)CNC(=O)C3CCCC3)s2)cc1]",IC50,[32],> 25 µM
same,IC50,[33],> 25 µM
same,IC50,[34],> 25 µM
same,chromatographic logD,[5],2.1
same,ΔTm at 100 µM,[35],3.5 °C
